Holding throughout (test): Bacterial growth minimal inhibitory concentration (microdilution, CLSI M7-A7)
Format in all cases: cell-based

One test has as its system E. coli ATCC25922. Conditions: Escherichia coli, ATCC25922; quinolone-sensitive strain; cation-adjusted Mueller-Hinton Broth. The procedure: (§1) Minimal Inhibitory Concentrations (MICs; mg/L) were determined in cation-adjusted Mueller-Hinton Broth by a microdilution method following the description given in “Methods for Dilution Antimicrobial Susceptibility Tests for Bacteria that Grow Aerobically”, Approved standard, 7th ed., Clinical and Laboratory Standards Institute (CLSI) Document M7-A7, Wayne, Pa., USA (2006).
(§2) All Example compounds were tested against several Gram-positive and Gram-negative bacteria. […] K. pneumoniae A-651 and Acinetobacter baumannii T6474 are multiply-resistant strains (in particular quinolone-resistant), while E. coli ATCC25922 and P. aeruginosa ATCC27853 are quinolone-sensitive strains.

Another test has as its system P. aeruginosa ATCC27853. Particulars: Pseudomonas aeruginosa, ATCC27853; quinolone-sensitive strain; cation-adjusted Mueller-Hinton Broth. The procedure: as §1, §2
The subject of the next test is K. pneumoniae A-651. Conditions: Klebsiella pneumoniae, A651; multiply-resistant strain (in particular quinolone-resistant); cation-adjusted Mueller-Hinton Broth. The procedure:
as §1, §2

Test [1] relates to Acinetobacter baumannii T6474. Conditions: Acinetobacter baumannii, T6474; multiply-resistant strain (in particular quinolone-resistant); cation-adjusted Mueller-Hinton Broth. The procedure: as §1, §2

In brackets after ≈: the same amount, converted by molar mass.

For the compound `C[C@@](CCn1ncc2cc(-c3ccc(-n4nccn4)cc3)ccc21)(C(=O)NO)S(C)(=O)=O` [Example 6, (R)-4-(5-(4-(2H-1,2,3-triazol-2-yl)phenyl)-1H-indazol-1-yl)-N-hydroxy-2-methyl-2-(methylsulfonyl)butanamide], the MIC (usually the lowest concentration that inhibits growth of the organism) in the test with E. coli ATCC25922 was at most 0.063 µg/mL; against P. aeruginosa ATCC27853, 2 µg/mL (≈ 4.4 µM); in the test with K. pneumoniae A-651, 0.125 µg/mL (≈ 0.275 µM); in test [1], 0.125 µg/mL (≈ 0.275 µM).
As to `C[C@@](CCn1ncc2c(F)c(C#Cc3ccc(CCO)cc3)ccc21)(C(=O)NO)S(C)(=O)=O` [Example 36, (R)-4-(4-fluoro-5-((4-(2-hydroxyethyl)phenyl)ethynyl)-1H-indazol-1-yl)-N-hydroxy-2-methyl-2-(methylsulfonyl)butanamide], the MIC was at most 0.063 µg/mL against E. coli ATCC25922, 1 µg/mL (≈ 2.11 µM) in the test on P. aeruginosa ATCC27853, 0.125 µg/mL (≈ 0.264 µM) against K. pneumoniae A-651 and at most 0.063 µg/mL in test [1].
With `C[C@@](CCn1ccc2cc(C#Cc3ccc(CO)cc3)ccc21)(C(=O)NO)S(C)(=O)=O` [Example 9, (R)—N-hydroxy-4-(5-((4-(hydroxymethyl)phenyl)ethynyl)-1H-indol-1-yl)-2-methyl-2-(methylsulfonyl)butanamide], the MIC with E. coli ATCC25922 was at most 0.063 µg/mL; in the test with P. aeruginosa ATCC27853, 1 µg/mL (≈ 2.27 µM); with K. pneumoniae A-651 it was 0.125 µg/mL (≈ 0.284 µM); in test [1], 0.125 µg/mL (≈ 0.284 µM).
As for `CC(CCn1ncc2cc(C#Cc3ccc(N)cc3)ccc21)(C(=O)NO)S(C)(=O)=O` (racemic) [RE6, (RS)-4-(5-((4-aminophenyl)ethynyl)-1H-indazol-1-yl)-N-hydroxy-2-methyl-2-(methylsulfonyl)butanamide], the MIC against E. coli ATCC25922 is 0.25 µg/mL (≈ 0.586 µM); in the test on P. aeruginosa ATCC27853, 8 µg/mL (≈ 18.8 µM); with K. pneumoniae A-651, 0.5 µg/mL (≈ 1.17 µM); in test [1] it was 1 µg/mL (≈ 2.34 µM).
The corresponding values for `C[C@@](CCn1ncc2cc(C#Cc3ccc([C@H]4C[C@@H]4CO)cc3)ccc21)(C(=O)NO)S(C)(=O)=O` [Example 19, (R)—N-hydroxy-4-(5-((4-((1S,2S)-2-(hydroxymethyl)cyclopropyl)phenyl)ethynyl)-1H-indazol-1-yl)-2-methyl-2-(methylsulfonyl)butanamide] are 0.125 µg/mL (≈ 0.26 µM), 1 µg/mL (≈ 2.08 µM), 0.25 µg/mL (≈ 0.519 µM) and at most 0.063 µg/mL.
The corresponding values for `CC(CCn1ccc2cc(-c3ccc(-n4nccn4)cc3)ccc21)(C(=O)NO)S(C)(=O)=O.O=CO` (racemic) [RE8, (RS)-4-(5-(4-(2H-1,2,3-triazol-2-yl)phenyl)-1H-indol-1-yl)-N-hydroxy-2-methyl-2-(methylsulfonyl)butanamide formate] are 0.25 µg/mL, 8 µg/mL, at most 0.063 µg/mL and 0.5 µg/mL.
The corresponding values for `C[C@@](CCn1ccc2cc(C#CC#C[C@@H]3C[C@H]3CO)c(F)cc21)(C(=O)NO)S(C)(=O)=O` (relative stereo) [Example 41, (R)-4-(6-fluoro-5-(((1R*,2R*)-2-(hydroxymethyl)cyclopropyl)buta-1,3-diyn-1-yl)-1H-indol-1-yl)-N-hydroxy-2-methyl-2-(methylsulfonyl)butanamide] are 0.125 µg/mL (≈ 0.28 µM), 1 µg/mL (≈ 2.24 µM), 0.125 µg/mL (≈ 0.28 µM) and 16 µg/mL (≈ 35.8 µM).
For `C[C@@](CCn1ncc2cc(C#Cc3ccc([C@H](O)CO)cc3)ccc21)(C(=O)NO)S(C)(=O)=O` [Example 22, (R)-4-(5-((4-((S)-1,2-dihydroxyethyl)phenyl)ethynyl)-1H-indazol-1-yl)-N-hydroxy-2-methyl-2-(methylsulfonyl)butanamide], the MIC came to 0.5 µg/mL (≈ 1.06 µM) in the test on E. coli ATCC25922, 1 µg/mL (≈ 2.12 µM) in the test with P. aeruginosa ATCC27853, 1 µg/mL (≈ 2.12 µM) with K. pneumoniae A-651 and 0.5 µg/mL (≈ 1.06 µM) in test [1].
Take `C[C@@](CCn1ccc2cc(C#CC#C[C@H]3C[C@@H]3CO)ccc21)(C(=O)NO)S(C)(=O)=O` [Example 17, (R)—N-hydroxy-4-(5-(((1S,2S)-2-(hydroxymethyl)cyclopropyl)buta-1,3-diyn-1-yl)-1H-indol-1-yl)-2-methyl-2-(methylsulfonyl)butanamide]: the MIC was at most 0.063 µg/mL against E. coli ATCC25922, 0.5 µg/mL (≈ 1.17 µM) in the test with P. aeruginosa ATCC27853, 0.125 µg/mL (≈ 0.292 µM) in the test on K. pneumoniae A-651 and 16 µg/mL (≈ 37.3 µM) in test [1].
In the case of `C[C@@](CCn1ncc2cc(C#CC#CC[C@@H](O)CO)ccc21)(C(=O)NO)S(C)(=O)=O` [Example 50, (R)-4-(5-((R)-6,7-dihydroxyhepta-1,3-diyn-1-yl)-1H-indazol-1-yl)-N-hydroxy-2-methyl-2-(methylsulfonyl)butanamide], the MIC against E. coli ATCC25922 amounted to 4 µg/mL (≈ 9.23 µM); in the test with P. aeruginosa ATCC27853, 2 µg/mL (≈ 4.61 µM); in the test on K. pneumoniae A-651 it was 4 µg/mL (≈ 9.23 µM); in test [1], 32 µg/mL (≈ 73.8 µM).
Consider `C[C@@](CCn1ncc2cc(C#Cc3ccc([C@@H](O)CO)cc3)ccc21)(C(=O)NO)S(C)(=O)=O` [Example 21, (R)-4-(5-((4-((R)-1,2-dihydroxyethyl)phenyl)ethynyl)-1H-indazol-1-yl)-N-hydroxy-2-methyl-2-(methylsulfonyl)butanamide], for which the MIC with E. coli ATCC25922 came to 1 µg/mL (≈ 2.12 µM); in the test on P. aeruginosa ATCC27853, 1 µg/mL (≈ 2.12 µM); in the test with K. pneumoniae A-651 it was 1 µg/mL (≈ 2.12 µM); in test [1], 0.5 µg/mL (≈ 1.06 µM).
On to `C[C@@](CCn1ncc2cc(C#Cc3ccc(CCO)cc3)ccc21)(C(=O)NO)S(C)(=O)=O` [Example 14, (R)—N-hydroxy-4-(5-((4-(2-hydroxyethyl)phenyl)ethynyl)-1H-indazol-1-yl)-2-methyl-2-(methylsulfonyl)butanamide], for which the MIC with E. coli ATCC25922 is at most 0.063 µg/mL; in the test with P. aeruginosa ATCC27853, 1 µg/mL (≈ 2.2 µM); in the test on K. pneumoniae A-651, 0.25 µg/mL (≈ 0.549 µM); in test [1], 0.125 µg/mL (≈ 0.274 µM).
On the same counts, the results for `C[C@@](CCn1ccc2cc(C#Cc3ccc(C4(CO)CC4)cc3)ccc21)(C(=O)NO)S(C)(=O)=O` [Example 25, (R)—N-hydroxy-4-(5-((4-(1-(hydroxymethyl)cyclopropyl)phenyl)ethynyl)-1H-indol-1-yl)-2-methyl-2-(methylsulfonyl)butanamide] are 0.25 µg/mL (≈ 0.52 µM), 2 µg/mL (≈ 4.16 µM), 0.5 µg/mL (≈ 1.04 µM) and 0.5 µg/mL (≈ 1.04 µM).
In the case of `C[C@@](CCn1ccc2cc(C#Cc3ccc(CCO)cc3)ccc21)(C(=O)NO)S(C)(=O)=O` [Example 45, (R)—N-hydroxy-4-(5-((4-(2-hydroxyethyl)phenyl)ethynyl)-1H-indol-1-yl)-2-methyl-2-(methylsulfonyl)butanamide], the MIC was at most 0.063 µg/mL in the test with E. coli ATCC25922, 1 µg/mL (≈ 2.2 µM) in the test with P. aeruginosa ATCC27853, 0.25 µg/mL (≈ 0.55 µM) against K. pneumoniae A-651 and 8 µg/mL (≈ 17.6 µM) in test [1].
As for `C[C@@H](O)c1ccc(C#Cc2ccc3c(cnn3CC[C@](C)(C(=O)NO)S(C)(=O)=O)c2F)cc1` [Example 37, (R)-4-(4-fluoro-5-((4-((R)-1-hydroxyethyl)phenyl)ethynyl)-1H-indazol-1-yl)-N-hydroxy-2-methyl-2-(methylsulfonyl)butanamide], the minimum inhibitory concentration (MIC) in the test on E. coli ATCC25922 was at most 0.063 µg/mL; in the test on P. aeruginosa ATCC27853 it was 1 µg/mL (≈ 2.11 µM); with K. pneumoniae A-651 it was 0.125 µg/mL (≈ 0.264 µM); in test [1], at most 0.063 µg/mL.
For the compound `COc1ccc(-c2ccc3c(ccn3CC[C@](C)(C(=O)NO)S(C)(=O)=O)c2)c(F)c1` (single isomer, unassigned) [Example 2], the MIC against E. coli ATCC25922 came out at 0.125 µg/mL (≈ 0.288 µM); with P. aeruginosa ATCC27853, 2 µg/mL (≈ 4.6 µM); against K. pneumoniae A-651, 2 µg/mL (≈ 4.6 µM); in test [1], 8 µg/mL (≈ 18.4 µM).
In the case of `C[C@@](CCn1ccc2cc(C#Cc3ccc(C4(O)COC4)cc3)ccc21)(C(=O)NO)S(C)(=O)=O` [Example 10, (R)—N-hydroxy-4-(5-((4-(3-hydroxyoxetan-3-yl)phenyl)ethynyl)-1H-indol-1-yl)-2-methyl-2-(methylsulfonyl)butanamide], the MIC in the test on E. coli ATCC25922 was determined as 0.125 µg/mL (≈ 0.259 µM); in the test on P. aeruginosa ATCC27853, 1 µg/mL (≈ 2.07 µM); against K. pneumoniae A-651 it was 0.25 µg/mL (≈ 0.518 µM); in test [1] it was 0.125 µg/mL (≈ 0.259 µM).
On to `CC(CCn1ccc2cc(-c3ccc(OC(F)(F)F)cc3)ccc21)(C(=O)NO)S(C)(=O)=O` (racemic) [RE9, (RS)—N-hydroxy-2-methyl-2-(methylsulfonyl)-4-(5-(4-(trifluoromethoxy)phenyl)-1H-indol-1-yl)butanamide], for which the MIC against E. coli ATCC25922 is 4 µg/mL (≈ 8.5 µM); in the test with P. aeruginosa ATCC27853 it was 8 µg/mL (≈ 17 µM); in the test on K. pneumoniae A-651, 2 µg/mL (≈ 4.25 µM); in test [1], 2 µg/mL (≈ 4.25 µM).
Consider `C[C@@](CCn1ccc2cc(C#Cc3ccc(C4(O)COC4)cc3)c(F)cc21)(C(=O)NO)S(C)(=O)=O` (single isomer, unassigned) [Example 15], for which the MIC in the test with E. coli ATCC25922 was found to be 0.5 µg/mL (≈ 0.999 µM); in the test on P. aeruginosa ATCC27853, 1 µg/mL (≈ 2 µM); in the test on K. pneumoniae A-651 it was 0.5 µg/mL (≈ 0.999 µM); in test [1], 0.25 µg/mL (≈ 0.499 µM).
`C[C@@](CCn1ncc2cc(C#Cc3ccc(OCCO)cc3)ccc21)(C(=O)NO)S(C)(=O)=O` [Example 27, (R)—N-hydroxy-4-(5-((4-(2-hydroxyethoxy)phenyl)ethynyl)-1H-indazol-1-yl)-2-methyl-2-(methylsulfonyl)butanamide]: the MIC with E. coli ATCC25922 came out at 0.25 µg/mL (≈ 0.53 µM); with P. aeruginosa ATCC27853 it was 2 µg/mL (≈ 4.24 µM); with K. pneumoniae A-651, 0.5 µg/mL (≈ 1.06 µM); in test [1] it was 0.125 µg/mL (≈ 0.265 µM).
In the case of `CC(C)(O)c1ccc(C#Cc2ccc3c(ccn3CC[C@](C)(C(=O)NO)S(C)(=O)=O)c2)cc1` [Example 29, (R)—N-hydroxy-4-(5-((4-(2-hydroxypropan-2-yl)phenyl)ethynyl)-1H-indol-1-yl)-2-methyl-2-(methylsulfonyl)butanamide], the MIC against E. coli ATCC25922 was found to be 0.25 µg/mL (≈ 0.534 µM); against P. aeruginosa ATCC27853, 2 µg/mL (≈ 4.27 µM); against K. pneumoniae A-651 it was 0.5 µg/mL (≈ 1.07 µM); in test [1] it was 0.5 µg/mL (≈ 1.07 µM).

These data come from patent publication US9624206B2, “Antibacterial 1H-indazole and 1H-indole derivatives” (priority 2013, dated 2017).
